pIC50, pKd: −log10 of the molar value.

Data on 11 compounds can be found in ChEMBL document CHEMBL4732222, “Discovery of novel Hsp90 C-terminal domain inhibitors that disrupt co-chaperone binding” (Bioorg Med Chem Lett, 2021).

The species named for assay [1] is Homo sapiens. The assay can be described thus: Inhibition of recombinant biotin-labelled HSP90/GST-labelled PPID interaction (unknown origin) at 500 uM by Alphascreen assay relative to control. For orientation: Bead proximity is the source of the signal in Alpha formats.
For assay [2], the target named is T1, Heat shock protein HSP90 (Homo sapiens, UniProt P07900+P08238). The assay can be described thus: Binding affinity to recombinant human N-terminal GST-tagged HSP90-CTD assessed as induction of fluorescence quenching at 1 mM by fluorescence spectroscopic analysis relative to control. The assay is classed as protein assay.
The target of assay [3] is T1, Heat shock protein HSP90. The assay can be described thus: Binding affinity to recombinant human N-terminal GST-tagged HSP90-CTD by fluorescence spectroscopic analysis. The assay is classed as protein assay.
Assay [4] can be described thus: Binding affinity to GST (unknown origin) by fluorescence spectroscopic analysis. It counts as ADME, Homo sapiens.
A short description of assay [5]: Inhibition of recombinant biotin-labelled HSP90/GST-labelled PPID interaction (unknown origin) by Alphascreen assay. On the set-up: species or system Homo sapiens.

On to `COc1ccc2[nH]c3c(c2c1)CCNC3c1cccc(O)c1` (centres undefined), for which the inhibition in assay [1] is greater than 60%.

Regarding `COc1ccc(C(=O)Nc2ccccc2C(=O)N[C@H](C(=O)O)C(C)C)cc1`, in assay [2], the Activity is greater than 30%.

Regarding `Cc1cc(O)c2c(=O)c(-c3csc(C)n3)coc2c1`, the inhibition in assay [1] was greater than 60%.

Turning to `CCOC(=O)c1cnc2ccc(OC)cc2c1Nc1ccccc1C(=O)O`, in assay [2], the Activity was greater than 30%.

Take `O=C(O)C1Cc2c([nH]c3ccccc23)C(c2c(O)ccc3ccccc23)N1` (centres undefined): the inhibition in assay [1] was greater than 60%.

As for `CCCCC(NC/C(=C(/C)O)c1cc2c(c(=O)o1)CCCC2)C(=O)O` (centres undefined), in assay [1], the inhibition was greater than 60%.

Take `COc1ccc(C(=O)Nc2ccccc2C(=O)NCCC(=O)O)cc1`: the Activity in assay [2] is greater than 30%.

With `CC(C)CCn1c(NCCO)nc2c1c(=O)[nH]c(=O)n2C`, the Activity in assay [2] was greater than 30%.

As to `NC(Cc1c[nH]c2ccc(OCc3ccccc3)cc12)C(=O)O` (centres undefined), in assay [3], the Kd is 28 µM. For the same compound, the Activity in assay [2] was greater than 30%. For the same compound, the pKd in assay [4] was 4.08. Moreover, the inhibition in assay [1] is greater than 60%. For the same compound, the pIC50 in assay [5] is 3.66.

In the case of `Cc1nc(CC(=O)c2ccc(O)c(O)c2O)cs1`, in assay [3], the Kd came to 102 µM. The Activity in assay [2] is greater than 30%. The pKd in assay [4] was 3.51. In assay [1], the inhibition was greater than 60%. Besides, the pIC50 in assay [5] was 4.46.

Consider `Cc1cc2oc(=O)cc(C)c2cc1NC(=O)CCCCl`, for which the inhibition in assay [1] is greater than 60%.

One may read the inhibition as how much of the control response was suppressed. What is called Kd is the concentration at which binding is half-saturated. One may read the pKd as the Kd on a negative log10 scale, so that one unit is a factor of ten. Broadly, the pIC50 is the negative decadic logarithm of the IC50, by convention in mol/L.
